In ChEMBL document CHEMBL1201862, “PubChem BioAssay data set” (2004):
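The compound was tested at five concentrations on cells cultured in 96-well plates, with a 48-hour exposure period. GI50 marks 50% less growth.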 Calls of active or inactive are those of the source. No stated cut-off is given here; in the data, active = GI50 up to about 1.1 µM and inactive = higher.

Columns and labels:
Experiment in all cases: NCI-60 cell line screen, 48 h
CAKI-1 = tested on: CAKI-1
EKVX = tested on: EKVX
HCC 2998 = tested on: HCC 2998
HL-60 = tested on: HL-60
HT-29 = tested on: HT-29
IGROV-1 = tested on: IGROV-1
LOX IMVI = tested on: LOX IMVI
MDA-N = tested on: MDA-N
MOLT-4 = tested on: MOLT-4
Malme-3M = tested on: Malme-3M
NCI-H226 = tested on: NCI-H226
NCI-H23 = tested on: NCI-H23
NCI-H460 = tested on: NCI-H460
SF-539 = tested on: SF-539
SK-MEL-5 = tested on: SK-MEL-5
UACC-257 = tested on: UACC-257
UACC-62 = tested on: UACC-62
BT-549 = tested on: BT-549

| SMILES | GI50 (CAKI-1) | GI50 (EKVX) | GI50 (HCC 2998) | GI50 (HL-60) | GI50 (HT-29) | GI50 (IGROV-1) | GI50 (LOX IMVI) | GI50 (MDA-N) | GI50 (MOLT-4) | GI50 (Malme-3M) | GI50 (NCI-H226) | GI50 (NCI-H23) | GI50 (NCI-H460) | GI50 (SF-539) | GI50 (SK-MEL-5) | GI50 (UACC-257) | GI50 (UACC-62) | GI50 (BT-549) |
| --- | --- | --- | --- | --- | --- | --- | --- | --- | --- | --- | --- | --- | --- | --- | --- | --- | --- | --- |
| Nc1n[nH]c(Nc2ccc(Cl)cc2)c1P(=O)(c1ccccc1)c1ccccc1 | 44.8 µM (inactive) | 35.2 µM (inactive) | 24.7 µM (inactive) | 25.8 µM (inactive) | 24 µM (inactive) | 19.1 µM (inactive) | 31.6 µM (inactive) | 11 µM (inactive) | 27.2 µM (inactive) | 21.5 µM (inactive) | 24.3 µM (inactive) | 30.4 µM (inactive) | 21.3 µM (inactive) | 21.8 µM (inactive) | 20.9 µM (inactive) | 31.3 µM (inactive) | 22.2 µM (inactive) |  |
| O=c1c(O)c(-c2cc(O)c(O)cc2O)oc2cc(O)c(C3OC(CO)C(O)C(O)C3O)c(O)c12 (stereo unspecified) |  | > 100 µM (inactive) |  | > 100 µM (inactive) | > 100 µM (inactive) | > 100 µM (inactive) | > 100 µM (inactive) | > 100 µM (inactive) | > 100 µM (inactive) |  | > 100 µM (inactive) |  | > 100 µM (inactive) | > 100 µM (inactive) |  | > 100 µM (inactive) | > 100 µM (inactive) | > 100 µM (inactive) |
| COc1ccc(/C=N/NC(=O)O)cc1 | > 100 µM (inactive) | > 100 µM (inactive) | 88.5 µM (inactive) |  | > 100 µM (inactive) | > 100 µM (inactive) | > 100 µM (inactive) | > 100 µM (inactive) | > 100 µM (inactive) | > 100 µM (inactive) |  | > 100 µM (inactive) | > 100 µM (inactive) | > 100 µM (inactive) | > 100 µM (inactive) | > 100 µM (inactive) | > 100 µM (inactive) | > 100 µM (inactive) |
| CCOC(=O)C1(Cc2c[nH]c3ccccc23)C(O)CCCN1C(C)=O (stereo unspecified) | > 100 µM (inactive) | > 100 µM (inactive) | > 100 µM (inactive) | > 100 µM (inactive) | > 100 µM (inactive) | > 100 µM (inactive) | > 100 µM (inactive) |  | > 100 µM (inactive) | > 100 µM (inactive) | > 100 µM (inactive) | > 100 µM (inactive) | > 100 µM (inactive) | > 100 µM (inactive) | > 100 µM (inactive) | > 100 µM (inactive) | > 100 µM (inactive) | > 100 µM (inactive) |
| O=C(O)c1ccccc1/C=N\N=C1NCCCCN1 | > 100 µM (inactive) | > 100 µM (inactive) | > 100 µM (inactive) |  | > 100 µM (inactive) | > 100 µM (inactive) | > 100 µM (inactive) | > 100 µM (inactive) | > 100 µM (inactive) | > 100 µM (inactive) | > 100 µM (inactive) | > 100 µM (inactive) | > 100 µM (inactive) | > 100 µM (inactive) | > 100 µM (inactive) | > 100 µM (inactive) | > 100 µM (inactive) | > 100 µM (inactive) |
| COc1ccc2nc3c([N+](=O)[O-])ccc(NCCCN(C)C)c3c(N)c2c1 | 1.81 µM (inactive) | 1.74 µM (inactive) |  | 1.61 µM (inactive) | 0.845 µM (active) | 1.21 µM (inactive) | 1.59 µM (inactive) | 1.82 µM (inactive) | 0.276 µM (active) | 1.42 µM (inactive) | 1.99 µM (inactive) | 1.99 µM (inactive) | 1.21 µM (inactive) | 1.78 µM (inactive) | 1.87 µM (inactive) | > 10 µM (inactive) | 1.82 µM (inactive) |  |
| Fc1ccc(Oc2nc3ccccc3nc2-c2ccccc2)cc1 | > 100 µM (inactive) | > 100 µM (inactive) | > 100 µM (inactive) | 13.9 µM (inactive) | > 100 µM (inactive) | > 100 µM (inactive) | > 100 µM (inactive) |  | > 100 µM (inactive) | > 100 µM (inactive) | > 100 µM (inactive) | 42.5 µM (inactive) | > 100 µM (inactive) |  | > 100 µM (inactive) | > 100 µM (inactive) | > 100 µM (inactive) | 95.3 µM (inactive) |
| C[N+]1([O-])[C@H]2CC(OC(=O)[C@H](CO)c3ccccc3)C[C@H]1[C@H]1O[C@H]12 (stereo partly specified) | > 100 µM (inactive) | > 100 µM (inactive) |  |  | > 100 µM (inactive) | > 100 µM (inactive) | > 100 µM (inactive) | > 100 µM (inactive) | > 100 µM (inactive) | > 100 µM (inactive) | > 100 µM (inactive) | > 100 µM (inactive) |  | > 100 µM (inactive) | > 100 µM (inactive) | > 100 µM (inactive) | > 100 µM (inactive) | > 100 µM (inactive) |
| CC12CC(=O)C3C(C(=O)C1)C32C (stereo unspecified) | > 100 µM (inactive) | > 100 µM (inactive) | > 100 µM (inactive) |  | > 100 µM (inactive) | > 100 µM (inactive) | > 100 µM (inactive) | > 100 µM (inactive) | > 100 µM (inactive) | 20.5 µM (inactive) | > 100 µM (inactive) | > 100 µM (inactive) | > 100 µM (inactive) | > 100 µM (inactive) | > 100 µM (inactive) | > 100 µM (inactive) | > 100 µM (inactive) | > 100 µM (inactive) |
| CS(=O)(=O)OCC1CCCCCCCCCCC12SCCCS2 (stereo unspecified) | > 100 µM (inactive) | > 100 µM (inactive) | > 100 µM (inactive) | > 100 µM (inactive) | > 100 µM (inactive) | > 100 µM (inactive) | > 100 µM (inactive) | > 100 µM (inactive) | > 100 µM (inactive) | > 100 µM (inactive) | > 100 µM (inactive) | > 100 µM (inactive) | > 100 µM (inactive) | > 100 µM (inactive) | > 100 µM (inactive) | > 100 µM (inactive) | > 100 µM (inactive) |  |
| Cc1c(Cl)c(S(N)(=O)=O)cc2c1N=CNS2(=O)=O | > 100 µM (inactive) | 0.507 µM (active) | > 100 µM (inactive) |  | > 100 µM (inactive) | > 100 µM (inactive) | > 100 µM (inactive) | > 100 µM (inactive) | > 100 µM (inactive) | > 100 µM (inactive) | > 100 µM (inactive) | > 100 µM (inactive) | > 100 µM (inactive) |  | > 100 µM (inactive) | > 100 µM (inactive) | > 100 µM (inactive) | > 100 µM (inactive) |
| O=c1[nH]nc(NCCc2ccccc2)c2nnn(Cc3ccccc3)c12 | > 100 µM (inactive) | > 100 µM (inactive) | > 100 µM (inactive) | > 100 µM (inactive) | > 100 µM (inactive) |  | > 100 µM (inactive) |  | > 100 µM (inactive) | > 100 µM (inactive) |  | > 100 µM (inactive) | > 100 µM (inactive) |  | > 100 µM (inactive) | > 100 µM (inactive) |  | > 100 µM (inactive) |
| Nn1c(S)nnc1C12CC3CC(CC(C3)C1)C2 | > 100 µM (inactive) | > 100 µM (inactive) | > 100 µM (inactive) | > 100 µM (inactive) | > 100 µM (inactive) | > 100 µM (inactive) | > 100 µM (inactive) | > 100 µM (inactive) | > 100 µM (inactive) | > 100 µM (inactive) | > 100 µM (inactive) | > 100 µM (inactive) | > 100 µM (inactive) | > 100 µM (inactive) | > 100 µM (inactive) |  | > 100 µM (inactive) |  |
| O=C(O)CCCN1CCCCC1 | > 100 µM (inactive) | > 100 µM (inactive) | > 100 µM (inactive) |  | > 100 µM (inactive) | > 100 µM (inactive) | > 100 µM (inactive) | > 100 µM (inactive) | > 100 µM (inactive) | > 100 µM (inactive) | > 100 µM (inactive) | > 100 µM (inactive) | > 100 µM (inactive) |  | > 100 µM (inactive) | > 100 µM (inactive) | > 100 µM (inactive) | > 100 µM (inactive) |
| O=[N+]([O-])c1sc2ccc(Cl)cc2c1Nc1ccc(Cl)cc1 |  | > 100 µM (inactive) | > 100 µM (inactive) | > 100 µM (inactive) | > 100 µM (inactive) | > 100 µM (inactive) | > 100 µM (inactive) |  | > 100 µM (inactive) | > 100 µM (inactive) | > 100 µM (inactive) | > 100 µM (inactive) | > 100 µM (inactive) | > 100 µM (inactive) | > 100 µM (inactive) |  | > 100 µM (inactive) | > 100 µM (inactive) |
| O=C(O)C(/C=C/c1ccccc1)c1ccccc1 (stereo unspecified) |  | > 100 µM (inactive) |  | 9.25 µM (inactive) | > 100 µM (inactive) | > 100 µM (inactive) | > 100 µM (inactive) | > 100 µM (inactive) | 6.59 µM (inactive) | > 100 µM (inactive) | > 100 µM (inactive) | > 100 µM (inactive) | > 100 µM (inactive) | > 100 µM (inactive) | > 100 µM (inactive) | > 100 µM (inactive) | > 100 µM (inactive) | > 100 µM (inactive) |
| CC(O[Si](c1ccccc1)(c1ccccc1)C(C)(C)C)[C@H](NC(=O)OC(C)(C)C)C(=O)O (stereo partly specified) | 40.3 µM (inactive) | 33.5 µM (inactive) | 36.2 µM (inactive) | 27.3 µM (inactive) | 32.2 µM (inactive) | 20.6 µM (inactive) |  | 38.7 µM (inactive) | 18.1 µM (inactive) | 50 µM (inactive) |  | 33 µM (inactive) | 55.6 µM (inactive) |  | 21.6 µM (inactive) | 36.1 µM (inactive) |  |  |
